Assay results taken from patent publication US20220325242A1, “IDH2 INHIBITION FOR PRODUCING T-CELLS AND B-CELLS WITH A MEMORY PHENOTYPE” (Universite de Lausanne, priority 2019, published 2022).

Experiments:
B16-OVA melanoma = test: Tumor growth of B16-OVA tumors after adoptive transfer of inhibitor-treated OT1 T-cells; assay type: in vivo, mouse; conditions: mice adoptively transferred with T-cells treated in vitro
Method: Example 5. In vivo tumor model to characterize the phenotype and efficacy of cultured CD8+ T-cells upon adoptive cell transfer. An in vivo tumor model was used to determine the efficacy of in vitro cultured CD8+ T-cells treated with an IDH2 inhibitor in eliminating cancer cells (FIG. 10). B16-OVA melanoma cells (see Example 1) were cultured in DMEM (GIBCO) with 10% FCS and 1% P/S before their subcutaneous injection into the mouse flank. Each mouse received 100′000 cells in a volume of 200 μl of PBS. 6 days after B16-OVA cell injection, tumors were measured, mice were randomized and lymphodepleted by irradiation (5 Gray). 7 days after B16-Ova cell injection, mice were adoptively transferred with activated CD45.1^+ OT-1 splenocytes. […] Live splenocytes, almost exclusively consisting of CD8+ T-cells (about 98%), were counted with Trypan blue stain 0.4%. […]
Following the adoptive cell transfer (ACT), mice received a vaccination of CpG (50 μg/mouse) and N4 Ova peptide (10 μg/mouse) diluted in PBS to obtain a total volume of 100 μl/mouse, injected subcutaneously at the tail base to further stimulate the transferred cells. […] Tumors were measured every 2 days with a digital caliper and the tumor volume was calculated according to the formula: V=π×[d2×D]/6, wherein d is the smallest tumor axis and D is the largest tumor axis.

[1] = system: Sell (CD62L) mRNA in OT1 cells; test: Sell (CD62L) gene expression by quantitative real time RT-PCR in OT1 cells; assay type: cell-based, mouse
Method: Example 2. In vitro culture of splenocytes comprising CD8+ T-cells. OT1 splenocytes (as described in Example 1) were cultured for 3 days at a concentration of 10^6 cells per mL in RPMI medium (Gibco 61870-01) supplemented with 10% FCS, (Gibco 10270-106), 1% Penicillin/Streptomycin (P/S; Gibco 15070-063), 0.1% 13-mercaptoethanol, 1% HEPES (Gibco 15630-080), 1× Non-essential amino acids (Gibco 11140-035), 1% L-glutamine (Gibco 25030-081), 1 mM Sodium Pyruvate (Gibco 11360-039), 100 U/m1 hIL-2 (Glaxo-IMB) and 1 μg/ml ovalbumin N4 peptide (SIINFEKL). To evaluate the effects of IDH2 inhibition on T-cell differentiation, 5 μM of a small molecule IDH2 inhibitor (AG221 or AGI6780) or a DMSO solvent control was added during this 3-day culture period. […] At day 3 and day 7, the activation and differentiation state of CD8+ T-cells was determined by gene expression analysis, flow cytometry and extracellular metabolic flux analyses (see Example 3).
a) Gene expression analysis by quantitative real time RT-PCR RNA was isolated with the RNeasy mini kit (Qiagen) and cDNA was generated by reverse transcription (Applied Biosystems). […] Gene expression was calculated relative to […] (FW primer: 5′ aga ctg ata cat acg cct gca g 3′, RV primer: 5′ gca ggt tca aat gaa tct tca g 3′).

OT1 CD8+ T-cells = test: Flow cytometry of surface activation and memory markers on in vitro cultured OT1 CD8+ T-cells; assay type: cell-based, mouse; conditions: 5 μM inhibitor day 0-3, flow cytometry on day 3 and 7
Method: (§1) Example 2. In vitro culture of splenocytes comprising CD8+ T-cells. OT1 splenocytes (as described in Example 1) were cultured for 3 days at a concentration of 10^6 cells per mL in RPMI medium (Gibco 61870-01) supplemented with 10% FCS, (Gibco 10270-106), 1% Penicillin/Streptomycin (P/S; Gibco 15070-063), 0.1% 13-mercaptoethanol, 1% HEPES (Gibco 15630-080), 1× Non-essential amino acids (Gibco 11140-035), 1% L-glutamine (Gibco 25030-081), 1 mM Sodium Pyruvate (Gibco 11360-039), 100 U/m1 hIL-2 (Glaxo-IMB) and 1 μg/ml ovalbumin N4 peptide (SIINFEKL). To evaluate the effects of IDH2 inhibition on T-cell differentiation, 5 μM of a small molecule IDH2 inhibitor (AG221 or AGI6780) or a DMSO solvent control was added during this 3-day culture period. At day 3, a fraction of the splenocytes was collected and the remaining cells were cultured for 4 additional days with 100 U/ml hIL-2 and 10 ng/ml hIL-7 (Peprotech 200-07) supplementation after washing out the inhibitors and the ovalbumine N4 peptide (FIG. 1). At day 3 and day 7, the activation and differentiation state of CD8+ T-cells was determined by gene expression analysis, flow cytometry and extracellular metabolic flux analyses (see Example 3).
Cells were incubated in a live/dead stain (Fixable aqua dead cell stain kit, Invitrogen) followed by an incubation with different antibody panels.
Antibody panel to determine the differentiation and activation state of in vitro cultured T-cells (see Examples 2 and 4): anti-CD8-PE-texas-Red, anti-CD62L-FITC, anti-CD127-PE, anti-CD27-PerCP-Cy5.5, anti-CD71-PE-Cy7, anti-CD44-APC-Cy7, anti-CD98-APC, anti-CD25-Pacific blue (BD Pharmingen and eBioscience, San Diego, Calif., USA). All those antigens are surface molecules. Cells were gated on living single CD8+ cells before analysis of activation and memory marker expression. For the unstained control, cells were stained with the live/dead stain and anti-CD8-PE-texas-Red.
Cells were acquired on LSR-II flow cytometers from the flow cytometry facility of UNIL and data were analyzed with FlowJo™ 10 software. Antibodies were purchased from BD Phamingen (San Diego, Calif., USA), eBioscience (San Diego, Calif., USA, and Biolegend (San Diego, Calif., USA).

OT1 CD8+ T cells = test: Extracellular flux analyses (XF-96 Seahorse) of OT1 CD8+ T cells; assay type: cell-based, mouse; conditions: day 7, compared to DMSO
Method: as §1
Real-time analysis of CD8^+ T cell oxygen consumption rate (OCR) was measured with an XF-96 Extracellular Flux Analyzer (Seahorse Bioscience) at day 7 of in vitro culture (FIG. 7). Measurements were performed while successively adding different drugs to the culture without any washing steps in between. Specifically, the measurements were performed under basal conditions, after addition of 1.25 μM oligomycin, a complex V inhibitor that blocks mitochondrial ATP synthase, after addition of 1 μM protonophore FCCP (fluoro-carbonyl cyanide phenylhydrazone) to uncouple ATP synthesis from oxygen consumption by the electron transport chain, after addition of 50 μM etomoxir to inhibit CPT1alpha, and thus fatty acid oxidation, and after addition of 100 nM rotenone and 1 μM antimycin A to inhibit the electron transport chain.
The basal OCR is the OCR measured in the absence of drugs. Addition of oligomycin allows to calculate the ATP-linked respiration by subtracting the oligomycin OCR from basal OCR. FCCP enables the electron transport chain (ETC) to reach its maximal rate, allowing to determine the cellular maximal respiratory capacity. Finally, rotenone and antimycin A inhibit the ETC which indicates the non-mitochondrial respiration. The spare respiratory capacity (SRC) is defined as the difference between basal OCR and maximal OCR obtained after FCCP addition.
In addition, the extracellular acidification rate (ECAR), which is an indicator for […], was measured using the same device under basal conditions. This allowed further calculating the OCR/ECAR ratio as indicator of basal mitochondrial activity.

CC(C)(O)CNc1nc(Nc2ccnc(C(F)(F)F)c2)nc(-c2cccc(C(F)(F)F)n2)n1 [AG221, 2-methyl-1-[[4-[6-(trifluoromethyl)pyridin-2-yl]-6-[[2-(trifluoromethyl)pyridin-4-yl]amino]-1,3,5-triazin-2-yl]amino]propan-2-ol]
tumor burden, in particular tumor growth (B16-OVA melanoma): significantly reduced
Sell (CD62L) mRNA expression increase ([1]; day 3, 5 μM, versus DMSO): 3 fold
Sell (CD62L) mRNA expression increase ([1]; day 7, 5 μM day 0-3, versus DMSO): 7 fold
CD62L surface expression compared to DMSO (OT1 CD8+ T-cells): increased
other surface markers (CD25, CD44, CD71, CD98, CD27, CD127) compared to DMSO (OT1 CD8+ T-cells): generally unchanged
OCR/ECAR ratio (OT1 CD8+ T cells): unchanged
basal oxygen consumption rate (OCR) (OT1 CD8+ T cells): significantly increased
extracellular acidification rates (ECAR) (OT1 CD8+ T cells): unchanged
maximal respiratory capacity (OT1 CD8+ T cells): significantly increased
spare respiratory capacity (SRC) (OT1 CD8+ T cells): significantly increased
